Where “and” joins values, the source holds several entries; their conditions need not be identical. Identical values can stand only once. Toxic doses and inconclusive results are not listed.
Test system: CD2F1 mice, L1210 leukemia ip, survival T/C
Test: NCI In Vivo Anticancer Drug Screen. Data for tumor model L1210 Leukemia (intraperitoneal) in CD2F1 (CDF1) mice
Details: higher = longer survival
In short: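 Each value reflects a quotient of treated over vehicle control outcomes in mice with a transplanted tumor.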

[1] = endpoint: mean survival time, dose: 100.0 mg/kg/injection, schedule: Q01DX009 (ip), vehicle: saline with Tween-80
[2] = endpoint: mean survival time, dose: 75.0 mg/kg/injection, schedule: Q01DX001 (ip), vehicle: other
[3] = endpoint: mean survival time, dose: 150.0 mg/kg/injection, schedule: Q01DX001 (ip), vehicle: other
[4] = endpoint: mean survival time, dose: 100.0 mg/kg/injection, schedule: Q04DX003 (ip), vehicle: saline with Tween-80
[5] = endpoint: mean survival time, dose: 200.0 mg/kg/injection, schedule: Q04DX003 (ip), vehicle: saline with Tween-80
[6] = endpoint: mean survival time, dose: 400.0 mg/kg/injection, schedule: Q04DX003 (ip), vehicle: saline with Tween-80
[7] = endpoint: mean survival time, dose: 100.0 mg/kg/injection, schedule: Q01DX001 (ip), vehicle: saline with Tween-80
[8] = endpoint: mean survival time, dose: 200.0 mg/kg/injection, schedule: Q01DX001 (ip), vehicle: saline with Tween-80
[9] = endpoint: mean survival time, dose: 400.0 mg/kg/injection, schedule: Q01DX001 (ip), vehicle: saline with Tween-80
[10] = endpoint: mean survival time, dose: 50.0 mg/kg/injection, schedule: Q01DX009 (ip), vehicle: saline with Tween-80
[11] = endpoint: mean survival time, dose: 200.0 mg/kg/injection, schedule: Q01DX009 (ip), vehicle: saline with Tween-80
[12] = endpoint: mean survival time, dose: 75.0 mg/kg/injection, schedule: Q01DX009 (ip), vehicle: saline with Tween-80
[13] = endpoint: mean survival time, dose: 100.0 mg/kg/injection, schedule: Q04DX002 (ip), vehicle: saline with Tween-80
[14] = endpoint: mean survival time, dose: 200.0 mg/kg/injection, schedule: Q04DX002 (ip), vehicle: saline with Tween-80
[15] = endpoint: mean survival time, dose: 400.0 mg/kg/injection, schedule: Q01DX009 (ip), vehicle: saline with Tween-80
[16] = endpoint: mean survival time, dose: 400.0 mg/kg/injection, schedule: Q04DX002 (ip), vehicle: saline with Tween-80

## C=CC[As](=O)(O)CCC
endpoint: mean survival time, dose: 25.0 mg/kg/injection, schedule: Q01DX009 (ip), vehicle: saline
  T/C: 100 % of control
endpoint: mean survival time, dose: 50.0 mg/kg/injection, schedule: Q01DX009 (ip), vehicle: saline
  T/C: 98 % of control
[1]
  T/C: 114 % of control
endpoint: mean survival time, dose: 100.0 mg/kg/injection, schedule: Q01DX009 (ip), vehicle: saline
  T/C: 97 % of control

## COc1ccc2c(O)c3[n+](cc2c1OC)CCc1cc2c(cc1-3)OCO2
[2]
  T/C: 100 % of control
[3]
  T/C: 87 % of control
endpoint: mean survival time, dose: 300.0 mg/kg/injection, schedule: Q01DX001 (ip), vehicle: other
  T/C: 100 % of control

## CC(C)(Nc1ccccc1)c1cccs1
[4]
  T/C: 101 % of control
[5]
  T/C: 97 % of control
[6]
  T/C: 112 % of control

## Oc1ccc(-c2nc3ccccc3s2)cc1
[7]
  T/C: 91 % of control
[8]
  T/C: 95 % of control
[9]
  T/C: 91 % of control

## C=C1C(=O)OC2/C=C(\C)CC(O)/C=C(/CO)CC(OC(=O)/C(C)=C/C)C12 (stereo unspecified)
endpoint: median survival time, dose: 15.0 mg/kg/injection, schedule: Q01DX009 (ip), vehicle: saline
  T/C: 103 % of control
endpoint: median survival time, dose: 30.0 mg/kg/injection, schedule: Q01DX009 (ip), vehicle: saline
  T/C: 108 % of control
endpoint: median survival time, dose: 60.0 mg/kg/injection, schedule: Q01DX009 (ip), vehicle: saline
  T/C: 105 % of control
endpoint: median survival time, dose: 120.0 mg/kg/injection, schedule: Q01DX009 (ip), vehicle: saline
  T/C: 95 % of control

## O=C(O)c1c(F)c(F)c(-c2c(F)c(F)c(C(=O)O)c(C(=O)O)c2F)c(F)c1C(=O)O
[7]
  T/C: 95 % of control
[8]
  T/C: 96 % of control

## CSc1nn(C2OC(COC(=O)c3ccccc3)C(OC(=O)c3ccccc3)C2OC(=O)c2ccccc2)c(=O)[nH]c1=S (stereo unspecified)
endpoint: mean survival time, dose: 12.5 mg/kg/injection, schedule: Q01DX005 (ip), vehicle: distilled water + Tween-80
  T/C: 96 % of control
endpoint: mean survival time, dose: 25.0 mg/kg/injection, schedule: Q01DX005 (ip), vehicle: distilled water + Tween-80
  T/C: 98 % of control
endpoint: mean survival time, dose: 50.0 mg/kg/injection, schedule: Q01DX005 (ip), vehicle: distilled water + Tween-80
  T/C: 95 % of control
endpoint: mean survival time, dose: 100.0 mg/kg/injection, schedule: Q01DX005 (ip), vehicle: distilled water + Tween-80
  T/C: 93 % of control
endpoint: mean survival time, dose: 200.0 mg/kg/injection, schedule: Q01DX005 (ip), vehicle: distilled water + Tween-80
  T/C: 91 % of control

## Oc1ccc(I)c2cccnc12
endpoint: mean survival time, dose: 12.5 mg/kg/injection, schedule: Q01DX009 (ip), vehicle: saline with Tween-80
  T/C: 98 % of control
endpoint: mean survival time, dose: 25.0 mg/kg/injection, schedule: Q01DX009 (ip), vehicle: saline with Tween-80
  T/C: 98 % of control
endpoint: mean survival time, dose: 45.0 mg/kg/injection, schedule: Q01DX009 (ip), vehicle: saline
  T/C: 97 % of control
[10]
  T/C: 98 % of control
endpoint: mean survival time, dose: 90.0 mg/kg/injection, schedule: Q01DX009 (ip), vehicle: saline
  T/C: 108 % of control
[1]
  T/C: 98 % of control
endpoint: mean survival time, dose: 180.0 mg/kg/injection, schedule: Q01DX009 (ip), vehicle: saline
  T/C: 112 % of control
[11]
  T/C: 104 % of control

## CCCn1c2cc([N+](=O)[O-])ccc2c(=O)c2ccc3ccccc3c21
[10]
  T/C: 97 % of control
[1]
  T/C: 104 % of control
[11]
  T/C: 101 % of control

## c1nc(Sc2ncnc3nc[nH]c23)c2[nH]cnc2n1
[12]
  T/C: 123 % of control
endpoint: mean survival time, dose: 300.0 mg/kg/injection, schedule: Q01DX009 (ip), vehicle: saline with Tween-80
  T/C: 169 % of control

## CCCCCCCCCCCCCCCCCc1nnc(-c2ccccc2O)o1
endpoint: mean survival time, dose: 25.0 mg/kg/injection, schedule: Q04DX002 (ip), vehicle: saline with Tween-80
  T/C: 100 % of control
endpoint: mean survival time, dose: 50.0 mg/kg/injection, schedule: Q04DX002 (ip), vehicle: saline with Tween-80
  T/C: 103 % of control
[13]
  T/C: 108 % of control
[14]
  T/C: 112 % of control

## Cn1c[n+](C)c2ncncc21
endpoint: mean survival time, dose: 3.8 mg/kg/injection, schedule: Q01DX005 (ip), vehicle: water
  T/C: 102 % of control
endpoint: mean survival time, dose: 7.5 mg/kg/injection, schedule: Q01DX005 (ip), vehicle: water
  T/C: 102 % of control
endpoint: mean survival time, dose: 15.0 mg/kg/injection, schedule: Q01DX005 (ip), vehicle: water
  T/C: 117 % of control
endpoint: mean survival time, dose: 30.0 mg/kg/injection, schedule: Q01DX005 (ip), vehicle: water
  T/C: 98 % of control
endpoint: mean survival time, dose: 60.0 mg/kg/injection, schedule: Q01DX005 (ip), vehicle: water
  T/C: 95 % of control

## Cc1cc(Cl)c2nc(-c3ccccc3)ccc2c1
[1]
  T/C: 103 % of control
[11]
  T/C: 101 % of control
[15]
  T/C: 97 % of control

## COc1cc(N)nc(OC)n1
[4]
  T/C: 94 % of control
[5]
  T/C: 100 % of control
[6]
  T/C: 87 % of control

## CC(=O)C(C(C)=O)C(c1cccnc1)C(C(C)=O)C(C)=O
[7]
  T/C: 104 % of control
[8]
  T/C: 107 % of control
[9]
  T/C: 98 % of control

## Nc1n[nH]c(=S)s1
[13]
  T/C: 107 % of control
[14]
  T/C: 96 % of control

## CC(=O)NC(C)(C)C
[4]
  T/C: 98 % of control
[5]
  T/C: 106 % of control
[6]
  T/C: 104 % of control

## CN1NC=Nc2c1[nH]cnc2=S
[2]
  T/C: 89 % of control
[3]
  T/C: 96 % of control

## Cc1c(/C=N/NC=O)[nH]c(=O)[nH]c1=O
endpoint: mean survival time, dose: 100.0 mg/kg/injection, schedule: Q01DX001 (ip), vehicle: saline
  T/C: 89 % of control
endpoint: mean survival time, dose: 200.0 mg/kg/injection, schedule: Q01DX001 (ip), vehicle: saline
  T/C: 91 % of control
endpoint: mean survival time, dose: 400.0 mg/kg/injection, schedule: Q01DX001 (ip), vehicle: saline
  T/C: 86 % of control

## Cc1c([C@H](C)[C@@H]2NC[C@@H](C)C[C@H]2O)ccc2c1C[C@H]1[C@H]2CC=C2C[C@@H](O)CC[C@@]21C
endpoint: mean survival time, dose: 2.5 mg/kg/injection, schedule: Q01DX009 (ip), vehicle: Klucel (hydroxypropylcellulose) (HPC)
  T/C: 96 % of control
endpoint: mean survival time, dose: 5.0 mg/kg/injection, schedule: Q01DX009 (ip), vehicle: Klucel (hydroxypropylcellulose) (HPC)
  T/C: 102 % of control

## Oc1cc(O)cc(/C=C/c2ccc(O)c(O)c2)c1
endpoint: median survival time, dose: 6.25 mg/kg/injection, schedule: Q01DX009 (ip), vehicle: DMSO
  T/C: 103 % of control
endpoint: median survival time, dose: 12.5 mg/kg/injection, schedule: Q01DX009 (ip), vehicle: DMSO
  T/C: 109 % of control
endpoint: median survival time, dose: 25.0 mg/kg/injection, schedule: Q01DX009 (ip), vehicle: DMSO
  T/C: 108 % of control and 109 % of control
endpoint: median survival time, dose: 50.0 mg/kg/injection, schedule: Q01DX009 (ip), vehicle: DMSO
  T/C: 108 % of control and 109 % of control
endpoint: median survival time, dose: 100.0 mg/kg/injection, schedule: Q01DX009 (ip), vehicle: DMSO
  T/C: 109 % of control

## CCCCNC(=S)N/N=C/c1ccccn1
[13]
  T/C: 98 % of control
[14]
  T/C: 109 % of control

## CN[C@H]1CCc2cc(OC)c(OC)c(OC)c2-c2ccc(SC)c(=O)cc21
endpoint: mean survival time, dose: 12.5 mg/kg/injection, schedule: Q01DX001 (ip), vehicle: Klucel (hydroxypropylcellulose) (HPC)
  T/C: 104 % of control
endpoint: mean survival time, dose: 25.0 mg/kg/injection, schedule: Q01DX001 (ip), vehicle: Klucel (hydroxypropylcellulose) (HPC)
  T/C: 106 % of control
endpoint: mean survival time, dose: 50.0 mg/kg/injection, schedule: Q01DX001 (ip), vehicle: Klucel (hydroxypropylcellulose) (HPC)
  T/C: 102 % of control

## Oc1ccc(N=Nc2ccccn2)c(O)c1
[4]
  T/C: 97 % of control
[5]
  T/C: 112 % of control
[6]
  T/C: 93 % of control

## CCOC(=O)/C(C#N)=C(\C)c1ccccc1
endpoint: mean survival time, dose: 37.5 mg/kg/injection, schedule: Q01DX009 (ip), vehicle: saline with Tween-80
  T/C: 95 % of control
[12]
  T/C: 97 % of control

## N=c1ccccn1CCO
endpoint: mean survival time, dose: 75.0 mg/kg/injection, schedule: Q01DX001 (ip), vehicle: saline
  T/C: 100 % of control
endpoint: mean survival time, dose: 150.0 mg/kg/injection, schedule: Q01DX001 (ip), vehicle: saline
  T/C: 108 % of control

## CC(=O)OCC1=C(COC(C)=O)C2OC1C(OC(C)=O)C2OC(C)=O (stereo unspecified)
[13]
  T/C: 102 % of control
[14]
  T/C: 98 % of control
[16]
  T/C: 94 % of control

## CCN(CC)c1nc(Cl)nc(NC(C)C)n1
[1]
  T/C: 100 % of control
endpoint: mean survival time, dose: 100.0 mg/kg/injection, schedule: Q04DX003 (ip), vehicle: saline
  T/C: 103 % of control
[11]
  T/C: 101 % of control
endpoint: mean survival time, dose: 200.0 mg/kg/injection, schedule: Q04DX003 (ip), vehicle: saline
  T/C: 100 % of control
[15]
  T/C: 94 % of control
endpoint: mean survival time, dose: 400.0 mg/kg/injection, schedule: Q04DX003 (ip), vehicle: saline
  T/C: 103 % of control

## CC(=O)CCCCOC(C)=O
[4]
  T/C: 101 % of control
[5]
  T/C: 101 % of control
[6]
  T/C: 98 % of control

## CC(=O)Nc1ccc([N+](=O)[O-])c(C(F)(F)F)c1
[4]
  T/C: 98 % of control
[5]
  T/C: 103 % of control

## Cc1ccc2nc(-c3ccc(Cl)cc3Cl)oc(=O)c2c1
[13]
  T/C: 100 % of control
[14]
  T/C: 114 % of control
[16]
  T/C: 107 % of control

— PubChem BioAssay AID256 (DTP/NCI, 2004)
